Test results published in US20250145619A1, “KHK INHIBITOR, PREPARATION METHOD THEREFOR AND USE THEREOF” (YOUNGENE THERAPEUTICS CO., LTD, priority 2022, published 2025).

Target: KHK—C (Homo sapiens (Human), UniProt P50053)
Assay: KHK—C ADP-Glo kinase inhibitory activity assay
Format: biochemical
Settings: 1 nM KHK—C, 200 μM D-Fructose, 100 μM ATP, ADP-Glo luminescence
Source text: (KHK—C ADP-Glo Kinase Inhibitory Activity Assay)
Y=Bottom+(Top−Bottom)/(1+10^((LogIC50−X)×HillSlope)) • X: Log value of compound concentration • Y: Inhibition ratio (%)
[formula] • Negative control: DMSO

KHK—C, sequence (P50053 whole entry): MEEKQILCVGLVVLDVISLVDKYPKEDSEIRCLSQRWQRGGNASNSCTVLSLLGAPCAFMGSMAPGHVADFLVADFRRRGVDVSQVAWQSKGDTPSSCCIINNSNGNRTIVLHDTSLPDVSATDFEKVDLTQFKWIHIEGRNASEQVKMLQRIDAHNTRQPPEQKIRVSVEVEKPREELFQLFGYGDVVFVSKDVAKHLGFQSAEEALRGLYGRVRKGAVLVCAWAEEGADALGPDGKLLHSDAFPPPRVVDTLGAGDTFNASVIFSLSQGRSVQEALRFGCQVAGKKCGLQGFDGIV

In the case of `C[C@H]1CCN1c1nc(N2CC[C@H](CC(=O)O)C2)cc2nccnc12` [Example 41, 2-((R)-1-(5-((S)-2-methylazetidine-1-yl)pyridino[3,4-b]pyrazin-7-yl)pyrrolidin-3-yl)acetic acid], the IC50 was 3940 nM.
`C[C@H]1CCN1c1nc(N2C[C@@H]3[C@@H](CC(=O)O)[C@@H]3C2)cc2nc(C#N)cnc12` [Example 46, 2-((1R,5S,6R)-3-(2-cyano-5-((S)-2-methylazetidine-1-yl)pyridino[3,4-b]pyrazin-7-yl)-3-azabicyclo[3.1.0]hexan-6-yl)acetic acid] gave an IC50 of 30.2 nM.
